Reference: ChEMBL document CHEMBL1201862, “PubChem BioAssay data set” (2004)
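In this assay, cells in 96-well plates receive the compound at five concentrations for 48 hours. Endpoints are linearly interpolated between the surrounding concentrations. At the GI50, growth is halved.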 Calls of active or inactive are those of the source. No stated cut-off is given here; in the data, active = GI50 up to about 1.1 µM and inactive = higher.

Key:
Assay in all cases: NCI-60 cell line screen, 48 h
KM12 = system: KM12
COLO 205 = system: COLO 205
HL-60 = system: HL-60
K562 = system: K562
Malme-3M = system: Malme-3M
SK-MEL-5 = system: SK-MEL-5
HCC 2998 = system: HCC 2998
PC-3 = system: PC-3
SK-MEL-28 = system: SK-MEL-28
RPMI-8226 = system: RPMI-8226
NCI-H23 = system: NCI-H23
SW-620 = system: SW-620
HT-29 = system: HT-29
CAKI-1 = system: CAKI-1
HCT-15 = system: HCT-15
DU-145 = system: DU-145
SK-OV-3 = system: SK-OV-3
786-0 = system: 786-0
UACC-62 = system: UACC-62
UACC-257 = system: UACC-257
OVCAR-8 = system: OVCAR-8
EKVX = system: EKVX
MOLT-4 = system: MOLT-4
SNB-75 = system: SNB-75
SR = system: SR
MDA-N = system: MDA-N
RXF 393 = system: RXF 393
TK-10 = system: TK-10
SN12C = system: SN12C
HOP-62 = system: HOP-62
CCRF-CEM = system: CCRF-CEM
T47D = system: T47D
MDA-MB-231 = system: MDA-MB-231
M14 = system: M14
MCF7 = system: MCF7
LOX IMVI = system: LOX IMVI
A549 = system: A549
IGROV-1 = system: IGROV-1
SF-295 = system: SF-295
HCT-116 = system: HCT-116
NCI/ADR-RES = system: NCI/ADR-RES
OVCAR-5 = system: OVCAR-5
HOP-92 = system: HOP-92
SNB-19 = system: SNB-19
SK-MEL-2 = system: SK-MEL-2
SF-539 = system: SF-539
NCI-H460 = system: NCI-H460
Hs-578T = system: Hs-578T
SF-268 = system: SF-268
ACHN = system: ACHN
OVCAR-3 = system: OVCAR-3
UO-31 = system: UO-31
U-251 = system: U-251
NCI-H226 = system: NCI-H226
MDA-MB-435 = system: MDA-MB-435
OVCAR-4 = system: OVCAR-4

Measured: GI50

CC(C)(Oc1ccc(C(=O)c2ccc(Cl)cc2)cc1Cl)C(=O)N1CCN(CCO)CC1
inactive: KM12 > 10 µM | COLO 205 > 10 µM | HL-60 3.53 µM | K562 2.85 µM | Malme-3M 9.42 µM | SK-MEL-5 3.91 µM | HCC 2998 > 10 µM | PC-3 3.93 µM | SK-MEL-28 > 10 µM | RPMI-8226 4.51 µM | NCI-H23 4.24 µM | SW-620 > 10 µM | HT-29 > 10 µM | CAKI-1 > 10 µM | DU-145 7.05 µM | SK-OV-3 > 10 µM | 786-0 > 10 µM | UACC-62 > 10 µM | UACC-257 3.39 µM | OVCAR-8 > 10 µM | EKVX > 10 µM | MOLT-4 4.4 µM | SNB-75 > 10 µM | SR 2.96 µM | MDA-N > 10 µM | RXF 393 6.27 µM | TK-10 > 10 µM | SN12C > 10 µM | HOP-62 > 10 µM | CCRF-CEM > 10 µM | T47D 5.85 µM | MDA-MB-231 > 10 µM | M14 > 10 µM | MCF7 5.12 µM | LOX IMVI > 10 µM | A549 > 10 µM | IGROV-1 > 10 µM | SF-295 8.59 µM
> 10 µM: HCT-15

CC(C)N(/C(F)=N\C(=O)Nc1ccccc1C(F)(F)F)C(C)C
inactive: KM12 42.5 µM | HCT-116 36.6 µM | COLO 205 44.7 µM | HL-60 31 µM | K562 35.8 µM | Malme-3M 31.6 µM | NCI/ADR-RES 41.5 µM | OVCAR-5 > 100 µM | SK-MEL-5 38.4 µM | HOP-92 22.5 µM | SNB-19 49.9 µM | HCC 2998 31.3 µM | PC-3 33.3 µM | SK-MEL-2 22.8 µM | SK-MEL-28 81.5 µM | RPMI-8226 24.4 µM | SF-539 92 µM | NCI-H23 67 µM | SW-620 44.7 µM | HT-29 40.2 µM | NCI-H460 68.2 µM | CAKI-1 37.4 µM | Hs-578T 60.3 µM | SF-268 89.3 µM | SK-OV-3 33.7 µM | 786-0 69 µM | ACHN 39.4 µM | UACC-62 > 10 µM | UACC-257 55.1 µM | OVCAR-8 58.1 µM | EKVX 31.8 µM | MOLT-4 > 10 µM | SNB-75 > 100 µM | SR 28.5 µM | MDA-N 66.5 µM | OVCAR-3 32 µM | UO-31 45 µM | TK-10 52.5 µM | SN12C 37.2 µM | HOP-62 75 µM | CCRF-CEM 37.9 µM | MDA-MB-231 47.3 µM | U-251 43.4 µM | M14 47.6 µM | MCF7 35.6 µM | LOX IMVI 32 µM | A549 52.1 µM | NCI-H226 > 100 µM | IGROV-1 33.8 µM | SF-295 45.6 µM
34.3 µM: HCT-15

COc1cccc(Nc2nc3c([nH]2)c(=O)n(C)c(=O)n3C)c1
> 10 µM: HCT-15
inactive: MDA-MB-435 > 10 µM | KM12 > 10 µM | COLO 205 > 10 µM | HL-60 > 10 µM | K562 > 10 µM | Malme-3M > 10 µM | SK-MEL-5 > 10 µM | HOP-92 > 10 µM | HCC 2998 > 10 µM | PC-3 > 10 µM | SK-MEL-28 > 10 µM | OVCAR-4 > 10 µM | RPMI-8226 > 10 µM | NCI-H23 > 10 µM | SW-620 > 10 µM | HT-29 > 10 µM | CAKI-1 > 10 µM | DU-145 > 10 µM | SF-268 > 10 µM | SK-OV-3 > 10 µM | 786-0 > 10 µM | UACC-62 > 10 µM | UACC-257 > 10 µM | OVCAR-8 > 10 µM | EKVX > 10 µM | MOLT-4 > 10 µM | SNB-75 > 10 µM | SR > 10 µM | MDA-N > 10 µM | RXF 393 7.01 µM | TK-10 > 10 µM | SN12C > 10 µM | HOP-62 > 10 µM | CCRF-CEM > 10 µM | T47D > 10 µM | MDA-MB-231 > 10 µM | M14 > 10 µM | MCF7 > 10 µM | LOX IMVI > 10 µM | A549 > 10 µM | IGROV-1 > 10 µM | SF-295 > 10 µM
